Laboratory results reported in patent US10195185B2, “3-(1H-imidazo[4,5-C]pyridin-2-yl)-1H-pyrazolo[4,3-B]pyridines and therapeutic uses thereof” (Samumed, LLC, priority 2015, dated 2019).

What was measured:
[1] = test system: IL-6 in human monocyte cell line (THP-1 cells); assay: IL-6 inhibition in LPS-stimulated THP-1 cells (HTRF); format: cell-based; settings: IL-6 in LPS-stimulated THP-1 cells; for EC50: HTRF; for inhibition at 10 µM: read-out: percent inhibition in brackets beside EC50 >10 μM
How it was run: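 THP-1 cells, serum-reduced (1% FBS) for 24 h, were preincubated with compound (10-point 1:3 series from 10 μM, 0.1% DMSO) for 2 h, then stimulated with 500 ng/mL LPS for 22 h at 37° C. IL-6 was read by HTRF (665/620 nm ratio) and normalized to DMSO. EC50 from four-parameter fit; % inhibition at 10 μM given if EC50 >10 μM.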

[2] = test system: primary human mesenchymal stem cells (hMSCs); assay: Induction of chondrogenesis in hMSCs (nodule area, Rhodamine B / Nile Red); format: cell-based; settings: TGF-β3 as positive control; for Emax: read-out: Max. Activity as % TGF-β3 activity; for EC50: concentration required to induce 50% levels of chondrogenesis, read-out: Conc (nM) of 50% TGF-β3 activity
How it was run: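 Primary hMSCs (passage 3–6) in incomplete chondrogenic induction medium were treated 6 days at 37° C. with 1:3 dilutions (2700–10 nM in 96-well or 5000–2.2 nM in 384-well; 0.03% DMSO). Rhodamine B/Nile Red-stained nodule area was imaged, normalized to DMSO wells, and EC50 was set against TGF-β3 (10 ng/mL).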

SMILES | EC50 [1] [µM] | EC50 [2] [nM] | inhibition at 10 µM [1] [%] | Emax [2] [%]
Cc1ccc(-c2nccc3[nH]c(-c4n[nH]c5ccc(-c6cncc(NC(=O)C(C)C)c6)nc45)nc23)s1 [Compound 401, N-(5-(3-(4-(5-Methylthiophen-2-yl)-1H-imidazo[4,5-c]pyridin-2-yl)-1H-pyrazolo [4,3-b]pyridin-5-yl)pyridin-3-yl)isobutyramide] | > 10 | 1670 | 0 | 56
CCCCC(=O)Nc1cncc(-c2ccc3[nH]nc(-c4nc5c(-c6cc(F)cc(NCCN(C)C)c6)nccc5[nH]4)c3n2)c1 [Compound 467, N-(5-(3-(4-(3-((2-(Dimethylamino)ethyl)amino)-5-fluorophenyl)-1H-imidazo[4,5-c]pyridin-2-yl)-1H-pyrazolo[4,3-b]pyridin-5-yl)pyridin-3-yl)pentanamide] | > 10 | 100 | 33.1 | 52
CN(C)c1cncc(-c2ccc3[nH]nc(-c4nc5c(-c6cccc(F)c6)nccc5[nH]4)c3n2)c1 [Compound 7] | 3.11 | 900 | – | 58
Fc1cccc(-c2nccc3[nH]c(-c4n[nH]c5ccc(C6=CCNCC6)nc45)nc23)c1 [Compound 506, 3-(4-(3-Fluorophenyl)-1H-imidazo[4,5-c]pyridin-2-yl)-5-(1,2,3,6-tetrahydropyridin-4-yl)-1H-pyrazolo[4,3-b]pyridine] | > 10 | 21 | 34.6 | 56
CN(C)Cc1cncc(-c2ccc3[nH]nc(-c4nc5c(-c6cccs6)nccc5[nH]4)c3n2)c1 [Compound 349, N,N-dimethyl-1-(5-(3-(4-(thiophen-2-yl)-1H-imidazo[4,5-c]pyridin-2-yl)-1H-pyrazolo[4,3-b]pyridin-5-yl)pyridin-3-yl)methanamine] | > 10 | 10 | 0 | 75
Fc1cccc(-c2nccc3[nH]c(-c4n[nH]c5ccc(-c6ccncc6)nc45)nc23)c1 [Compound 18, 3-(4-(3-Fluorophenyl)-1H-imidazo[4,5-c]pyridin-2-yl)-5-(pyridin-4-yl)-1H-pyrazolo[4,3-b]pyridine] | > 10 | 2 | 4.6 | 53
Cc1ccc(-c2nccc3[nH]c(-c4n[nH]c5ccc(-c6cncc(N)c6)nc45)nc23)s1 [Compound 395, 5-(3-(4-(5-Methylthiophen-2-yl)-1H-imidazo[4,5-c]pyridin-2-yl)-1H-pyrazolo[4,3-b]pyridin-5-yl)pyridin-3-amine] | 0.142 | 10 | – | 73
CCNCc1cncc(-c2ccc3[nH]nc(-c4nc5c(-c6cc(F)cc(NCCN(C)C)c6)nccc5[nH]4)c3n2)c1 [Compound 454, N^1-(3-(2-(5-(5-((Ethylamino)methyl)pyridin-3-yl)-1H-pyrazolo[4,3-b]pyridin-3-yl)-1H-imidazo[4,5-c]pyridin-4-yl)-5-fluorophenyl)-N^2,N^2-dimethylethane-1,2-diamine] | 1.03 | – | – | 36

Continued, in another order:

EC50 [1] [µM] | EC50 [2] [nM] | SMILES | inhibition at 10 µM [1] [%] | Emax [2] [%]
3.57 | 2 | CN(C)CCOc1cncc(-c2ccc3[nH]nc(-c4nc5c(-c6cccc(F)c6)nccc5[nH]4)c3n2)c1 [Compound 515, 2-((5-(3-(4-(3-Fluorophenyl)-1H-imidazo[4,5-c]pyridin-2-yl)-1H-pyrazolo [4,3-b]pyridin-5-yl)pyridin-3-yl)oxy)-N,N-dimethylethan-1-amine] | – | 59
> 10 | 7 | Fc1cccc(-c2nccc3[nH]c(-c4n[nH]c5ccc(-c6cn[nH]c6)nc45)nc23)c1 [Compound 507, 3-(4-(3-Fluorophenyl)-1H-imidazo[4,5-c]pyridin-2-yl)-5-(1H-pyrazol-4-yl)-1H-pyrazolo[4,3-b]pyridine] | 0 | 70
> 10 | – | NC1CN(c2cncc(-c3ccc4[nH]nc(-c5nc6c(-c7cccc(F)c7)nccc6[nH]5)c4n3)n2)C1 [Compound 510, 1-(6-(3-(4-(3-Fluorophenyl)-1H-imidazo[4,5-c]pyridin-2-yl)-1H-pyrazolo [4,3-b]pyridin-5-yl)pyrazin-2-yl)azetidin-3-amine] | 9.4 | 36
9.81 | – | Cc1ccncc1-c1ccc2[nH]nc(-c3nc4c(-c5cc(F)cc(CNS(C)(=O)=O)c5)nccc4[nH]3)c2n1 [Compound 481, N-(3-Fluoro-5-(2-(5-(4-methylpyridin-3-yl)-1H-pyrazolo[4,3-b]pyridin-3-yl)-1H-imidazo[4,5-c]pyridin-4-yl)benzyl)methanesulfonamide] | – | 30
> 10 | 7 | Oc1cncc(-c2ccc3[nH]nc(-c4nc5c(-c6cccc(F)c6)nccc5[nH]4)c3n2)c1 [Compound 517, 5-(3-(4-(3-Fluorophenyl)-1H-imidazo[4,5-c]pyridin-2-yl)-1H-pyrazolo[4,3-b]pyridin-5-yl)pyridin-3-ol] | 54.4 | 57
